Data published in patent US6245817A, “NPY5 receptor antagonists and methods for using same” (Bayer Corporation, priority 1999, dated 2001).
pIC50: −log10 of the molar value. Where two headings read alike, the source gives them in different places.

Experiments:
[1] = target: T1, Human NPY5 Receptor (Homo sapiens, UniProt Q15761); assay: Human NPY5 Receptor Binding Assay
T1 sequence (Q15761 1-445): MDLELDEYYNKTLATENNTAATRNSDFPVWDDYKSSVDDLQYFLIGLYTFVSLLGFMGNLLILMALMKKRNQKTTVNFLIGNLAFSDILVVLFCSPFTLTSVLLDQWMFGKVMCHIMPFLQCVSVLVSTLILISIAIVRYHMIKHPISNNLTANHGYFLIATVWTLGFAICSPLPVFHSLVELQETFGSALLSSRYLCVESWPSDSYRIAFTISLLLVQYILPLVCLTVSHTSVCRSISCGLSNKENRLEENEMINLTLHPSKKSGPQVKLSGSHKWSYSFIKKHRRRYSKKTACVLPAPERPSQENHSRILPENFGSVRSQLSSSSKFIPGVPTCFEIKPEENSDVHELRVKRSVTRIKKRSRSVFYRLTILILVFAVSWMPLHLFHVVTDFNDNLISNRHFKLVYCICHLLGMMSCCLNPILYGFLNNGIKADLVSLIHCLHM

[2] = target: T2, Human NPY2 receptor (Homo sapiens, UniProt P49146); assay: Human NPY2 Receptor Binding Assay
T2 sequence (P49146 1-381): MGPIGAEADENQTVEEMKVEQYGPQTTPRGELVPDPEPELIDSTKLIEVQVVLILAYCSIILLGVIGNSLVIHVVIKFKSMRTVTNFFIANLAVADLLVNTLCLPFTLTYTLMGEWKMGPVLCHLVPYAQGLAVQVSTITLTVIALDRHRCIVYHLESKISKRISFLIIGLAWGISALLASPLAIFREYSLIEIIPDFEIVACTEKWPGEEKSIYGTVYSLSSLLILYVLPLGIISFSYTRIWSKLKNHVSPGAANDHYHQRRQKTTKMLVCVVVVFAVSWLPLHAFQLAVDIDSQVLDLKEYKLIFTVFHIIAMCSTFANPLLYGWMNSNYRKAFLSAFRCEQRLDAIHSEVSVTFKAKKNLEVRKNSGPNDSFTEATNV

[3] = [125I]PYY, read-out: hNPY5 IC50
[4] = [125I]PYY, read-out: hPPY2 IC50

Row | pIC50 [1, 3] | pIC50 [2, 4] | SMILES | pIC50 ([1]; hNPY5 IC50, [125I]PYY) | pIC50 [2]
1 | 6.42 | < 5.30 | O=C(CSc1nc2cc([N+](=O)[O-])ccc2[nH]1)Nc1ccc(C2CCCCC2)cc1 [Compound 17, N-(4-Cyclohexyl-phenyl)-2-(5-nitro-1H-benzoimidazol-2-ylsulfanyl)-acetamide] | – | –
2 | 6.70 | < 5.30 | O=C(CSc1nc2cc([N+](=O)[O-])ccc2[nH]1)Nc1ccc(C(=O)c2ccccc2)cc1 [Compound 18, N-(4-Benzoyl-phenyl)-2-(5-nitro-1H-benzolmidazol-2-ylsulfanyl)-acetamide] | – | –
3 | 6.15 | < 5.30 | COc1ccc2[nH]c(SCC(=O)Nc3ccc(C4CCCCC4)cc3)nc2c1 [Compound 19, N-(4-Cyclohexyl-phenyl)-2-(5-methoxy-1H-benzolmidazol-2-ylsulfanyl)-acetamide] | – | –
4 | 6.38 | < 5.30 | COc1ccc2[nH]c(SCC(=O)Nc3ccc(C(=O)c4ccccc4)cc3)nc2c1 [Compound 20, N-(4-Benzoyl-phenyl)-2-(5-methoxy-1H-benzolmidazol-2-ylsulfanyl)-acetamide] | – | –
5 | 6.37 | < 5.30 | Cc1ccc2[nH]c(SCC(=O)Nc3ccc(C4CCCCC4)cc3)nc2c1 [Compound 21, N-(4-Cyclohexyl-phenyl)-2-(5-methyl-1H-benzolmidazol-2-ylsulfanyl)-acetamide] | – | –
6 | 6.51 | < 5.30 | Cc1ccc2[nH]c(SCC(=O)Nc3ccc(C(=O)c4ccccc4)cc3)nc2c1 [Compound 22, N-(4-Benzoyl-phenyl)-2-(5-methyl-1H-benzolmidazol-2-ylsulfanyl)-acetamide] | – | –
7 | < 5.00 | < 5.30 | O=C(CSc1ncnc2c1ncn2[C@@H]1O[C@H](CO)[C@H](O)[C@H]1O)Nc1ccc(C2CCCCC2)cc1 [Compound 23, N-(4-Cyclohexyl-phenyl)-2-[9-((2R,3R,4R,5R)-3,4-dihydroxy-5-hydroxymethyl-tetrahydro-furan-2-yl)-9H-purin-6-ylsulfanyl]-acetamide] | – | –
8 | < 5.00 | < 5.30 | O=C(CSc1ncnc2c1ncn2[C@@H]1O[C@H](CO)[C@H](O)[C@H]1O)Nc1ccc(C(=O)c2ccccc2)cc1 [Compound 24, N-(4-Benzoyl-phenyl)-2-[9-((2R,3R,4R,5R)-3,4-dihydroxy-hydroxymethy-tetrahydro-furan-2-yl)-9H-purin-ylsulfanyl]-acetamide] | – | –
9 | < 5.00 | < 5.30 | O=C(CSc1nc2ccccc2c(=O)[nH]1)Nc1ccc(C2CCCCC2)cc1 [Compound 25, N-(4-Cyclohexyl-phenyl)-2-(4-oxo-3,-dihydro-quinazolin-2-ylsulfanyl)-acetamide] | – | –
10 | < 5.00 | < 5.30 | O=C(CSc1ncnc2nc[nH]c12)Nc1ccc(C(=O)c2ccccc2)cc1 [Compound 28, N-(4-Benzoyl-phenyl)-2-(7H-purin-ylsulfanyl)-acetamide] | – | –
11 | 6.32 | < 5.30 | Cc1ccnc(SCC(=O)Nc2ccc(C(=O)c3ccccc3)cc2)n1 [Compound 30, N-(4-Benzoyl-phenyl)-2-(4-methyl-pyrimidin-2-ylsulfanyl)-acetamide] | – | –
12 | 6.19 | < 5.30 | O=C(CSC1=NCCS1)Nc1ccc(C2CCCCC2)cc1 [Compound 31] | – | –
13 | 5.92 | < 5.30 | O=C(CSC1=NCCS1)Nc1ccc(C(=O)c2ccccc2)cc1 [Compound 32, N-(4-Benzoyl-phenyl)-2-(4,5-dihydro-thiazol-2-ylsulfanyl)-acetamide] | – | –
14 | 7.16 | < 5.30 | O=C(CSCCO)Nc1ccc(C2CCCCC2)cc1 [Compound 33, N-(4cydohexyl-phenyl)-2-(2-hydroxy-ethylsulfanyl)-acetamide] | – | –
15 | 6.84 | < 5.30 | O=C(CSCC(O)CO)Nc1ccc(C2CCCCC2)cc1 (stereo not drawn) [Compound 34, N-(4-Cyclohexyl-phenyl)-2-(2,3-dihydroxy-propylsulfanyl)-acetamide] | – | –
16 | 5.44 | < 5.30 | O=C(CSc1ncnc2[nH]ncc12)Nc1ccc(C2CCCCC2)cc1 [Compound 35, N-(4-Cyclohexyl-phenyl)-2-(1H-pyrazolo[3,4-d]pyrimidin-4-ylsulfanyl)-acetamide] | – | –
17 | 6.96 | < 5.30 | O=C(CSc1cccc[n+]1[O-])Nc1ccc(C2CCCCC2)cc1 [Compound 36, N-(4-Cyclohexyl-phenyl)-2-(1-oxy-pyridin-2-ylsulfanyl)-acetamide] | – | –
18 | 5.77 | < 5.30 | O=C(CSc1nc2ccccc2s1)Nc1ccc(C2CCCCC2)cc1 [Compound 37, 2-(Benzothiazol-2-ylsulfanyl)-N-(4-cyclohexylphenyl)-acetamide] | – | –
19 | < 5.00 | < 5.30 | O=C(CSc1nc2ccccc2o1)Nc1ccc(C2CCCCC2)cc1 [Compound 38, 2-(Benzooxazol-2-ylsulfanyl)-N-(-Cyclohexyl-phenyl)-acetamide] | – | –
20 | 6.31 | < 5.30 | O=C(CSc1ncccn1)Nc1ccc(C2CCCCC2)cc1 [Compound 39, N-(-Cyclohexyl-phenyl)-2-(pyrimidin-2-ylsulfanyl)-acetamide] | – | –

Row | pIC50 [1, 3] | pIC50 [2, 4] | SMILES | pIC50 ([1]; hNPY5 IC50, [125I]PYY) | pIC50 [2]
21 | 6.16 | < 5.30 | O=C(CSCCO)Nc1ccc(C(=O)c2ccccc2)cc1 [Compound 40, N-(4-Benzoyl-phenyl)-2-(2-hydroxy-ethylsulfanyl)-acetamide] | – | –
22 | – | – | O=C(CSc1ccncc1)Nc1ccc(C(=O)c2ccccc2)cc1 [Compound 41, N-(4-Benzoyl-phenyl)-2-(pyridin-4-ylsulfanyl)-acetamide] | 6.48 | < 5.30
23 | 5.82 | < 5.30 | O=C(CSCC(O)CO)Nc1ccc(C(=O)c2ccccc2)cc1 (stereo not drawn) [Compound 42, N-(4-Benzoyl-phenyl)-2-(2,3-dihydroxy-propylsulfanyl)-acetamide] | – | –
24 | 5.89 | < 5.30 | O=C(CSc1ncnc2[nH]ncc12)Nc1ccc(C(=O)c2ccccc2)cc1 [Compound 43, N-(4-Benzoyl-phenyl)-2-(1H-pyrazolo[3,4-d]pyrimidin-4-ylsulfanyl)-acetamide] | – | –
25 | 6.49 | < 5.30 | O=C(CSc1ccccn1)Nc1ccc(C(=O)c2ccccc2)cc1 [Compound 44, N-(4-Benzoyl-phenyl)-2-(pyridin-2-ylsulfanyl)-acetamide] | – | –
26 | 6.77 | < 5.30 | Cn1nnnc1SCC(=O)Nc1ccc(C(=O)c2ccccc2)cc1 [Compound 45, N-(4-Benzoyl-phenyl)-2-(1-methyl-1H-tetrazol-5-ylsulfanyl)-acetamide] | – | –
27 | 6.52 | < 5.30 | O=C(CSc1cccc[n+]1[O-])Nc1ccc(C(=O)c2ccccc2)cc1 [Compound 46, N-(4-Benzoyl-phenyl)-2-(1-oxy-pyridin-2-ylsulfanyl)-acetamide] | – | –
28 | 5.42 | < 5.30 | O=C(CSc1nc2ccccc2s1)Nc1ccc(C(=O)c2ccccc2)cc1 [Compound 47, 2-(Benzothiazol-2-ylsulfanyl)-N-(4-benzoyl-phenyl)-acetamide] | – | –
29 | 5.52 | < 5.30 | O=C(CSc1nc2ccccc2o1)Nc1ccc(C(=O)c2ccccc2)cc1 [Compound 48, 2-(Benzooxazol-2-ylsulfanyl)-N-(4-benzoyl-phenyl)-acetamide] | – | –
30 | 5.80 | < 5.30 | O=C(CSc1ncccn1)Nc1ccc(C(=O)c2ccccc2)cc1 [Compound 49, N-(4-Benzoyl-phenyl)-2-(pyrimidin-2-ylsulfanyl)-cetarnide] | – | –
31 | 7.28 | < 5.30 | O=C(CSc1ccncc1)Nc1ccc(C2CCCCC2)cc1 [Compound 50, N-(-clohexyl-phenyl)-2-(pyridin-4-ylsulfanyl)-acetamide] | – | –
32 | 6.14 | < 5.30 | O=C(CSc1nnnn1-c1ccccc1)Nc1ccc(C2CCCCC2)cc1 [Compound 52] | – | –
33 | 6.68 | < 5.30 | O=C(CSc1ccc(F)cc1)Nc1ccc(C2CCCCC2)cc1 [Compound 53] | – | –
34 | 5.70 | < 5.30 | CC(=O)Nc1ccc(SCC(=O)Nc2ccc(C3CCCCC3)cc2)cc1 [Compound 54] | – | –
35 | 5.77 | < 5.30 | O=C(CSc1ccc(O)cc1)Nc1ccc(C2CCCCC2)cc1 [Compound 55] | – | –
36 | 6.14 | < 5.30 | O=C(CSc1nc[nH]n1)Nc1ccc(C2CCCCC2)cc1 [Compound 56, N-(4-Cyclohexyl-phenyl)-2-(1H-[1,2,4]triazol-3-ylsultanyl)-acetamide] | – | –
37 | < 6.00 | < 5.30 | Nc1nc(SCC(=O)Nc2ccc(C3CCCCC3)cc2)n[nH]1 [Compound 57, 2-(-Amino-2H-[1,2,4]triazol-3-ylsulfanyl)-N-(4-cyclohexyl-phenyl)-acetamide] | – | –
38 | < 6.00 | < 5.30 | Nc1nc(SCC(=O)Nc2ccc(C3CCCCC3)cc2)c2[nH]cnc2n1 [Compound 58, 2-(2-Amino-7H-purin-ylsulfanyl)-N-(4-cyclohexyl-phenyl)-acetamide] | – | –
39 | < 6.00 | < 5.30 | Nc1nc(SCC(=O)Nc2ccc(C3CCCCC3)cc2)nc2[nH]ncc12 [Compound 59] | – | –
